Experimental findings from ChEMBL document CHEMBL1133412, “Rational design, synthesis and structure-activity relationships of antitumor (E)-2-benzylidene-1-tetralones and (E)-2-benzylidene-1-indanones” (Bioorg Med Chem Lett, 2000) are described below.

Holding throughout (assay type): functional, cell-based
For assay [1], the system named is L1210. As to the kind of experiment: Cytotoxicity was evaluated against L1210 tumor cell lines; Slightly active. As to conditions: Mus musculus.
Assay [2] has as its system K562. As to the kind of experiment: Cytotoxicity was evaluated against K562 tumor cell lines; Slightly active. The following applies: Homo sapiens.
The subject of assay [3] is NCI-H596. As to the kind of experiment: Cytotoxicity was evaluated against H596 tumor cell lines; Slightly active. As to conditions: Homo sapiens.
The test system of assay [4] is HL-60. As to the kind of experiment: Cytotoxicity was evaluated against HL-60 tumor cell lines; Slightly active. The following applies: Homo sapiens.
The test system of a further assay is Jurkat. As to the kind of experiment: In vitro test for antitumor activity against human Jurkat cell line using a formazan dye (MTT) conversion assay.
The subject of assay [5] is WIL2. The assay can be described thus: Cytotoxicity was evaluated against WIL2 tumor cell lines; Slightly active. As to conditions: Homo sapiens.
Assay [6] deals with CCRF-CEM. As to the kind of experiment: Cytotoxicity was evaluated against CEM tumor cell lines; Slightly active. As to conditions: Homo sapiens.
The subject of assay [7] is NIH3T3. As to the kind of experiment: Cytotoxicity was evaluated against NIH3T3 tumor cell lines; Slightly active. The following applies: Mus musculus.
Assay [8] relates to MOLT-4. As to the kind of experiment: Cytotoxicity was evaluated against Molt-4 tumor cell lines; Slightly active. The following applies: Homo sapiens.
For assay [9], the system named is MCF7. The assay can be described thus: Cytotoxicity was evaluated against MCF-7 tumor cell lines; Slightly active. As to conditions: Homo sapiens.
Assay [10] concerns A549. The assay can be described thus: Cytotoxicity was evaluated against A549 tumor cell lines; Slightly active. The following applies: Homo sapiens.
For assay [11], the system named is B16. As to the kind of experiment: Cytotoxicity was evaluated against B16 tumor cell lines; Slightly active. The following applies: Mus musculus.
Assay [12] relates to WI-38. The assay can be described thus: Cytotoxicity was evaluated against WI38 tumor cell lines; Slightly active. The following applies: Homo sapiens.
Assay [13] has as its system NCI-H292. The assay can be described thus: Cytotoxicity was evaluated against H292 tumor cell lines; Slightly active. As to conditions: Homo sapiens.
Assay [14] has as its system NCI-H292. The assay can be described thus: Cytotoxicity was evaluated against H292 tumor cell lines; Inactive. The following applies: Homo sapiens.
For assay [15], the system named is MOLT-4. As to the kind of experiment: Cytotoxicity was evaluated against Molt-4 tumor cell lines; Inactive. The following applies: Homo sapiens.
In assay [16] the test system is WIL2. As to the kind of experiment: Cytotoxicity was evaluated against WIL2 tumor cell lines; Inactive. The following applies: Homo sapiens.
Assay [17] deals with HL-60. As to the kind of experiment: Cytotoxicity was evaluated against HL-60 tumor cell lines; Inactive. As to conditions: Homo sapiens.
In assay [18] the test system is MCF7. As to the kind of experiment: Cytotoxicity was evaluated against MCF-7 tumor cell lines; Inactive. As to conditions: Homo sapiens.
Assay [19] relates to L1210. The assay can be described thus: Cytotoxicity was evaluated against L1210 tumor cell lines; Inactive. The following applies: Mus musculus.
The test system of assay [20] is B16. As to the kind of experiment: Cytotoxicity was evaluated against B16 tumor cell lines; Inactive. As to conditions: Mus musculus.
The test system of assay [21] is K562. As to the kind of experiment: Cytotoxicity was evaluated against K562 tumor cell lines; Inactive. As to conditions: Homo sapiens.
The subject of assay [22] is NCI-H596. The assay can be described thus: Cytotoxicity was evaluated against H596 tumor cell lines; Inactive. As to conditions: Homo sapiens.
Assay [23] relates to NIH3T3. The assay can be described thus: Cytotoxicity was evaluated against NIH3T3 tumor cell lines; Inactive. The following applies: Mus musculus.
Assay [24] concerns CCRF-CEM. The assay can be described thus: Cytotoxicity was evaluated against CEM tumor cell lines; Inactive. As to conditions: Homo sapiens.
In assay [25] the test system is A549. As to the kind of experiment: Cytotoxicity was evaluated against A549 tumor cell lines; Inactive. The following applies: Homo sapiens.
For assay [26], the system named is WI-38. The assay can be described thus: Cytotoxicity was evaluated against WI38 tumor cell lines; Inactive. The following applies: Homo sapiens.

Activity calls are given as the source filed them. No cut-off for these calls is given here.

Turning to `COc1cc2c(cc1OC)C(=O)/C(=C/c1cc(C)c(OC(=O)OCC(C)C)c(C)c1)C2`, the Cytotoxicity entry in the assay on L1210 [1], in the assay on K562 [2], in the assay on NCI-H596 [3], in the assay on HL-60 [4], in the assay with WIL2 [5] and with CCRF-CEM [6] was “Weak activity” in each case. The Cytotoxicity entry with NIH3T3 [7], in the assay with MOLT-4 [8], with MCF7 [9], in the assay on A549 [10], with B16 [11] and in the assay on WI-38 [12] was “Weak activity” each time. Moreover, in the assay with NCI-H292 [13], the Cytotoxicity result is “Weak activity”. The compound further yielded an IC50 in the assay with Jurkat of 21.5 µM.
Consider `COc1cc2c(c(N)c1O)C/C(=C\c1cc(C)c(O)c(C)c1)C2=O`, for which the Cytotoxicity result in the assay on L1210 [1], in the assay on K562 [2], in the assay with NCI-H596 [3], with HL-60 [4], in the assay with WIL2 [5] and in the assay on CCRF-CEM [6] was “Weak activity” each time. Besides, the Cytotoxicity result in the assay with NIH3T3 [7], in the assay on MOLT-4 [8], in the assay with MCF7 [9], in the assay on A549 [10], with B16 [11] and in the assay on WI-38 [12] was “Weak activity” throughout. In addition, the Cytotoxicity entry in the assay with NCI-H292 [13] is “Weak activity”. Besides, inhibition with Jurkat was half-maximal at 30 µM (IC50).
For the compound `O=C1/C(=C/c2cc(Cl)cc(Cl)c2)Cc2cc(O)c(O)cc21`, the Cytotoxicity entry in the assay with NCI-H292 [14], with MOLT-4 [15], in the assay with WIL2 [16], in the assay on HL-60 [17], with MCF7 [18] and in the assay with L1210 [19] was “inactive” each time. For the same compound, the Cytotoxicity entry in the assay with B16 [20], in the assay on K562 [21], with NCI-H596 [22], with NIH3T3 [23], in the assay on CCRF-CEM [24] and in the assay with A549 [25] was “inactive” in each case. In the assay on WI-38 [26], the Cytotoxicity result is “inactive”. In addition, the IC50 in the assay with Jurkat is above 50 µM.
`COc1ccc2c(c1)C(=O)/C(=C/c1cc(C)c(O)c(C)c1)C2`: the Cytotoxicity entry in the assay on NCI-H292 [14], in the assay on MOLT-4 [15], in the assay with WIL2 [16], in the assay with HL-60 [17], in the assay with MCF7 [18] and in the assay on L1210 [19] was “inactive” in each case. For the same compound, the Cytotoxicity entry in the assay on B16 [20], with K562 [21], in the assay on NCI-H596 [22], in the assay with NIH3T3 [23], in the assay with CCRF-CEM [24] and in the assay with A549 [25] was “inactive” throughout. Moreover, the Cytotoxicity entry in the assay with WI-38 [26] was “inactive”. The compound also registered an IC50 with Jurkat above 50 µM.
As to `COc1cc2c(cc1OC)C(=O)/C(=C/c1cccc([N+](=O)[O-])c1)C2`, the Cytotoxicity result with L1210 [1], with K562 [2], with NCI-H596 [3], in the assay with HL-60 [4], in the assay on WIL2 [5] and with CCRF-CEM [6] was “Weak activity” each time. Besides, the Cytotoxicity entry in the assay on NIH3T3 [7], with MOLT-4 [8], in the assay on MCF7 [9], in the assay on A549 [10], in the assay with B16 [11] and with WI-38 [12] was “Weak activity” in each case. Moreover, in the assay with NCI-H292 [13], the Cytotoxicity result is “Weak activity”. The same compound gave an IC50 in the assay on Jurkat of 22 µM.
For the compound `Cc1cc(/C=C2\Cc3cc4c(cc3C2=O)OCO4)cc(C)c1O`, the Cytotoxicity result with NCI-H292 [14], with MOLT-4 [15], with WIL2 [16], in the assay on HL-60 [17], in the assay with MCF7 [18] and in the assay on L1210 [19] was “inactive” in each case. The Cytotoxicity result with B16 [20], with K562 [21], with NCI-H596 [22], in the assay on NIH3T3 [23], in the assay with CCRF-CEM [24] and in the assay on A549 [25] was “inactive” each time. Also, in the assay with WI-38 [26], the Cytotoxicity entry was “inactive”. In addition, in the assay on Jurkat, the IC50 is above 50 µM.
Regarding `COc1ccc(/C=C2\CCc3cc(OC)c(OC)cc3C2=O)cc1OC`, the Cytotoxicity entry with NCI-H292 [14], with MOLT-4 [15], with WIL2 [16], in the assay with HL-60 [17], with MCF7 [18] and with L1210 [19] was “inactive” in each case. For the same compound, the Cytotoxicity result with B16 [20], in the assay with K562 [21], in the assay on NCI-H596 [22], in the assay with NIH3T3 [23], in the assay with CCRF-CEM [24] and in the assay with A549 [25] was “inactive” each time. In addition, the Cytotoxicity entry in the assay on WI-38 [26] was “inactive”. The compound further came in with an IC50 in the assay on Jurkat above 50 µM.
Take `COc1cc2c(cc1OC)C(=O)/C(=C/c1cc(C)c([N+](=O)[O-])c(C)c1)C2`: the Cytotoxicity entry in the assay on L1210 [1], in the assay with K562 [2], in the assay with NCI-H596 [3], in the assay on HL-60 [4], in the assay with WIL2 [5] and with CCRF-CEM [6] was “Weak activity” each time. Further, the Cytotoxicity result with NIH3T3 [7], in the assay on MOLT-4 [8], in the assay on MCF7 [9], in the assay on A549 [10], in the assay with B16 [11] and with WI-38 [12] was “Weak activity” throughout. In addition, in the assay with NCI-H292 [13], the Cytotoxicity entry was “Weak activity”. The compound further displayed an IC50 with Jurkat of 25 µM.
Turning to `COc1cc2c(cc1OC)C(=O)/C(=C/c1cc(C)ccc1C)C2`, the Cytotoxicity entry with L1210 [1], in the assay on K562 [2], in the assay on NCI-H596 [3], in the assay on HL-60 [4], in the assay with WIL2 [5] and in the assay with CCRF-CEM [6] was “Weak activity” throughout. In addition, the Cytotoxicity result in the assay with NIH3T3 [7], in the assay with MOLT-4 [8], in the assay on MCF7 [9], in the assay with A549 [10], with B16 [11] and in the assay with WI-38 [12] was “Weak activity” throughout. Moreover, the Cytotoxicity entry in the assay on NCI-H292 [13] was “Weak activity”. Further, in the assay on Jurkat, the IC50 was 30.5 µM.
On to `COc1cc2c(cc1OC)C(=O)/C(=C/c1ccc(O)c(C(=O)O)c1)CC2`, for which the Cytotoxicity result with NCI-H292 [14], in the assay with MOLT-4 [15], in the assay with WIL2 [16], in the assay with HL-60 [17], in the assay on MCF7 [18] and in the assay on L1210 [19] was “inactive” in each case. Besides, the Cytotoxicity entry in the assay with B16 [20], with K562 [21], in the assay on NCI-H596 [22], in the assay with NIH3T3 [23], in the assay with CCRF-CEM [24] and in the assay on A549 [25] was “inactive” in each case. The Cytotoxicity entry in the assay on WI-38 [26] is “inactive”. The compound further registered an IC50 in the assay on Jurkat above 50 µM.
On to `COc1cc2c(cc1OC)C(=O)/C(=C/c1cccc(OC)c1OC)CC2`, for which the Cytotoxicity result with NCI-H292 [14], with MOLT-4 [15], in the assay on WIL2 [16], in the assay with HL-60 [17], in the assay with MCF7 [18] and with L1210 [19] was “inactive” each time. Also, the Cytotoxicity entry in the assay with B16 [20], in the assay with K562 [21], in the assay with NCI-H596 [22], in the assay with NIH3T3 [23], with CCRF-CEM [24] and in the assay on A549 [25] was “inactive” throughout. For the same compound, in the assay with WI-38 [26], the Cytotoxicity entry was “inactive”. In the assay with Jurkat, this compound yielded an IC50 above 50 µM.
Turning to `COc1ccccc1/C=C1\CCc2cc(OC)c(OC)cc2C1=O`, the Cytotoxicity result in the assay with NCI-H292 [14], in the assay with MOLT-4 [15], in the assay on WIL2 [16], in the assay with HL-60 [17], in the assay with MCF7 [18] and in the assay with L1210 [19] was “inactive” each time. Besides, the Cytotoxicity entry with B16 [20], with K562 [21], in the assay with NCI-H596 [22], in the assay with NIH3T3 [23], with CCRF-CEM [24] and in the assay on A549 [25] was “inactive” in each case. Further, the Cytotoxicity result with WI-38 [26] was “inactive”. The IC50 with Jurkat is above 50 µM.

As usually defined, the IC50 is the concentration at which inhibition is half-maximal. Read a high IC50 as lower potency.
